For one compound, IC50, AUC(0-t) and clearance results are on record in patent US20080214563A1, “Benzimidazole Thiophene Compounds As Plk Modulators” (priority 2005, published 2008).

In one data set the test system is HCT-116. Kind of data set: Cell-Titer Glo Cell Growth Inhibition Assay, HCT116. Format: cell-based. The note with it: Homo sapiens, CellTiter-Glo, 72 h, read-out: CTG HCT116 IC50. The method, then:
(§1) A549-L (human lung), BT474 (human breast), Colo 205 (human colon), H1299 (human lung), Hela (human cervix), HCT-116 (human colon), HN5 (human head and neck), HT29 (human colon), LNCap (human prostate), MCF7 (human breast), MDA-MB468 (human breast), MX-1 (human breast), RPMI 8226 (human peripheral blood), SKOV3 (human ovary) and P388 (murine leukemia) cell lines were cultured in RPMI1640 containing 10% fetal bovine serum at 37° C. in a 5% CO2 incubator. Cell lines were split into T75 flasks (Falcon #353136) two to three days prior to assay set up at density which yields approximately 70-80% confluency at time of harvest for assay. Cells were harvested using 0.25% trypsin with EDTA (Glibco/Invitrogen #25200-056), Cell counts were performed on cell suspensions using Trypan Blue exclusion staining, cells were then plated in 105 uL of culture media per well at the following densities in 96 well Costar #3916 black flat bottom plates: All human cell lines were plated at 500 cells/well. P388 were plated at 250 cells/well. All plates were placed at 5% CO2 37° C. overnight and then test compounds were added the following day. One plate of each cell type is treated with CellTiter-Glo (Promega #G7573) for a day 0 proliferation measurement and read as described below. The test compounds are prepared in clear U bottom polypropylene 96 well plates (Falcon #35-1190 with consecutive two fold dilutions. 9 uL of these dilutions was added into each well of the cell plates. The final concentration of DMSO in all wells is 0.15%. Cells were incubated at 37° C., 5% CO2 for 72 h. Following 72 h of incubation with compounds each plate was developed and read. CellTiter-Glo reagent was added to assay plates using a volume equivalent to the cell culture volume in the wells. Plates were shaken for approximately two minutes and incubated at room temperature for approximately 15 min and the chemiluminescent signal is read on the Victor V or Envison 2100 reader. […] Concentration of compound that inhibited 50% of cell growth (IC50) was analysis by 4 or 6 parameter fit of data using XLfit, value of no cell addition was subtracted from all samples for background.
(In general: ATP-based viability assays read luminescence as a measure of living cells.)

In the next data set the test system is Colo 205. Nature of the data set: Cell-Titer Glo Cell Growth Inhibition Assay, COLO205. The class given is cell-based. The following applies: Homo sapiens, CellTiter-Glo, 72 h, read-out: CTG COLO205 IC50. The method, then:
as §1

The next data set concerns P388. Kind of data set: Cell-Titer Glo Cell Growth Inhibition Assay, P388. Format: cell-based, murine. The note with it: Mus musculus, CellTiter-Glo, 72 h, read-out: CTG P388 IC50. On the procedure:
as §1

Another data set has as its system A549-L. Kind of data set: Cell-Titer Glo Cell Growth Inhibition Assay, A549-L. The class given is cell-based. The following applies: Homo sapiens, CellTiter-Glo, 72 h, read-out: CTG A549-L IC50. The method, then:
as §1

Another data set relates to HT29. Kind of data set: Cell-Titer Glo Cell Growth Inhibition Assay, HT29. The note with it: Homo sapiens, HT-29, CellTiter-Glo, 72 h, read-out: CTG HT29 IC50. Format: cell-based. The method, then: as §1
The subject of the next data set is SKOV3. Nature of the data set: Cell-Titer Glo Cell Growth Inhibition Assay, SKOV-3. The class given is cell-based. The following applies: Homo sapiens, SK-OV-3, CellTiter-Glo, 72 h, read-out: CTG SKOV-3 IC50. On the procedure:
as §1

A further data set relates to MX-1. Nature of the data set: Cell-Titer Glo Cell Growth Inhibition Assay, MX-1. The class given is cell-based. The note with it: Homo sapiens, MX1, CellTiter-Glo, 72 h, read-out: CTG MX-1 IC50. On the procedure:
as §1

Another data set has as its system BT474. Kind of data set: Cell-Titer Glo Cell Growth Inhibition Assay, BT474. The class given is cell-based. The note with it: Homo sapiens; CellTiter-Glo, 72 h, BT 474; read-out: CTG BT 474 IC50. On the procedure:
(§2) A549-L (human lung), BT474 (human breast), Colo 205 (human colon), H1299 (human lung), Hela (human cervix), HCT-116 (human colon), HN5 (human head and neck), HT29 (human colon), LNCap (human prostate), MCF7 (human breast), MDA-MB468 (human breast), MX-1 (human breast), RPMI 8226 (human peripheral blood), SKOV3 (human ovary) and P388 (murine leukemia) cell lines were cultured in RPMI1640 containing 10% fetal bovine serum at 37° C. in a 5% CO2 incubator. Cell lines were split into T75 flasks (Falcon #353136) two to three days prior to assay set up at density which yields approximately 70-80% confluency at time of harvest for assay. Cells were harvested using 0.25% trypsin with EDTA (Glibco/Invitrogen #25200-056), Cell counts were performed on cell suspensions using Trypan Blue exclusion staining, cells were then plated in 105 uL of culture media per well at the following densities in 96 well Costar #3916 black flat bottom plates: All human cell lines were plated at 500 cells/well. P388 were plated at 250 cells/well. All plates were placed at 5% CO2 37° C. overnight and then test compounds were added the following day. One plate of each cell type is treated with CellTiter-Glo (Promega #G7573) for a day 0 proliferation measurement and read as described below. […]

The test system of a further data set is Hela. Kind of data set: Cell-Titer Glo Cell Growth Inhibition Assay, Hela. Format: cell-based. The note with it: Homo sapiens, CellTiter-Glo, 72 h, read-out: CTG Hela IC50. On the procedure:
as §2

The next data set relates to HN5. Kind of data set: Cell-Titer Glo Cell Growth Inhibition Assay, HN5. The note with it: Homo sapiens, CellTiter-Glo, 72 h, read-out: CTG HN5 IC50. The class given is cell-based. On the procedure: as §2
The test system of another data set is LNCap. Nature of the data set: Cell-Titer Glo Cell Growth Inhibition Assay, LNCap. Format: cell-based. The following applies: Homo sapiens, CellTiter-Glo, 72 h, read-out: CTG LNCap IC50. The method, then: as §2
Another data set has as its system MCF7. Nature of the data set: Cell-Titer Glo Cell Growth Inhibition Assay, MCF7. Format: cell-based. The following applies: Homo sapiens, CellTiter-Glo, 72 h, read-out: CTG MCF7 IC50. The method, then: as §2
Another data set has as its system MDA-MB468. Kind of data set: Cell-Titer Glo Cell Growth Inhibition Assay, MDA-MB468. The class given is cell-based. The following applies: Homo sapiens, MDA-MB-468, CellTiter-Glo, 72 h, read-out: CTG MDA-MB468 IC50. The method, then: as §2
In another data set the test system is H1299. Nature of the data set: Cell-Titer Glo Cell Growth Inhibition Assay, H1299. Format: cell-based. The following applies: Homo sapiens, NCI-H1299, CellTiter-Glo, 72 h, read-out: CTG H1299 IC50. On the procedure: as §2
Another data set concerns RPMI 8226. Nature of the data set: Cell-Titer Glo Cell Growth Inhibition Assay, RPMI 8226. The class given is cell-based. The following applies: Homo sapiens, CellTiter-Glo, 72 h, read-out: CTG RPMI 8226 IC50. On the procedure:
as §2

Data set [1] can be described thus: Intravenous pharmacokinetics in CD-1 mouse. Format: in vivo. The note with it: plasma, iv bolus, male CD-1 mouse, dose 1.9-7.4 mg/kg per compound (Table 3). The method, then:
Preliminary investigation of the intravenous pharmacokinetics of compounds of invention were carried out in fed conscious CD-1 mouse. Compounds were formulated as 1-10 mg/kg, 5 mL/kg, 1-2 mg/mL solution (Table 3). Twenty one male mice (n=3 mice per time point) (˜30 g) received dose solution by bolus injection in the tail vein. The formulation for iv were either 20% beta cyclodextrin in saline pH 3.5-6 or PEG400:ethanol:saline (50:15:35 v/v). Blood samples (˜0.4 mL) were collected terminally by cardiac puncture following anesthetization in a CO2 chamber at 2, 15, 30, 60 min, 2, 4, and 6 h following iv administration. Blood samples were collected into tubes containing heparin and placed on crushed ice promptly after collection. Plasma was collected by centrifugation, frozen and stored at about −80° C. prior to analysis. Blood or plasma concentrations were determined by LC/MS/MS equipped with an electrospray ion source and using calibration curves for the appropriate matrix. The lower level of quantitation (LLQ) was 10 ng/mL. Blood or plasma concentration-time data were analyzed by non-compartmental methods using the computer program WinNonlin Professional (version 4.1). Area under the blood or plasma concentration-time curve (AUC) was calculated using the linear trapezoidal rule for each incremental trapezoid up to Cmax, and the log trapezoidal rule for each trapezoid thereafter. The terminal elimination rate constant (λz) was derived from the log-linear disposition phase of the concentration-time curve using least-squares regression analysis with visual inspection of the data to determine the appropriate number of terminal data points for regression analysis.
Following iv administration, the total body clearance (CL) was estimated. CL was calculated by dividing the dose by AUC(0−t). The clearance values were assigned as follows. Low <30 mL/min/kg, moderate 30-70 mL/min/kg, high >70 mL/min/kg. The assignment was based on hepatic blood flow i.e. hepatic blood flow of 0-30% low, 30-70% moderate and 70-100% high. The hepatic blood flow in mouse is ˜100 mL/min/kg.

pIC50: −log10 of the molar value.

Broadly, the pIC50 is −log10 of the IC50, conventionally taken in molar units. By AUC(0-t) is commonly meant the area under the concentration-time curve up to a stated or last time point. A high value points to high exposure. With `CCN1CCN(CCCn2cc(-c3ccc4c(c3)ncn4-c3cc(O[C@H](C)c4ccccc4Cl)c(C(N)=O)s3)cn2)CC1` [Example 8, 3-{[(1R)-1-(2-Chlorophenyl)ethyl]oxy}-5-(5-{1-[3-(4-ethyl-1-piperazinyl)propyl]-1H-pyrazol-4-yl}-1H-benzimidazol-1-yl)-2-thiophenecarboxamide], the pIC50 with HCT-116, in the data set on Colo 205, with P388, in the data set on A549-L, with HT29 and in the data set on SKOV3 was above 7.00 in each case. In addition, the pIC50 in the data set with MX-1, in the data set on BT474, with Hela, in the data set on HN5, in the data set with LNCap and with MCF7 was above 7.00 each time. Besides, the pIC50 in the data set on MDA-MB468, with H1299 and in the data set with RPMI 8226 was above 7.00 throughout. The AUC(0-t) in data set [1] worked out at 1410 ng·h/mL. Also, in data set [1] (read-out: Plasma CL), the clearance was 43.6 mL/min/kg.
